Reference: patent publication US8049034B2, “Biphenyl compound selective agonists of gamma RAR receptors” (Galderma Research & Development, priority 2005, dated 2011)

What was measured:
Format in all cases: cell-based
RAR beta = molecular target: T1, RAR beta (Homo sapiens, UniProt P10826); assay: Transactivation test (luciferase reporter, HeLa stable transfectants), RAR beta; conditions: apparent Kd from Schild regression, cross curves against reference antagonist, HeLa cells; read-out: RAR beta Kdapp
T1 sequence (P10826 183-417 limits assumed): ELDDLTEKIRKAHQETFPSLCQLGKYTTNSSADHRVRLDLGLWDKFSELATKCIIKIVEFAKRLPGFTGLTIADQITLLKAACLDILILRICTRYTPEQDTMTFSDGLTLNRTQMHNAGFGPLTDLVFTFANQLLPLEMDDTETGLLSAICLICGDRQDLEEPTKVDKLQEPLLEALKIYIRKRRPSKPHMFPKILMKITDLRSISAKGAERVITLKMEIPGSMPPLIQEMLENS
Protocol: (§1) The activation of the receptors by an agonist (activator) in HeLa cells results in the expression of a reporter gene, luciferase, which, in the presence of a substrate, generates light. It is thus possible to measure the activation of the receptors by quantifying the luminescence produced after incubation of the cells in the presence of a reference antagonist. The activating products displace the antagonist from its site, thus allowing activation of the receptor. The activity is measured by quantifying the increase in the light produced. This measurement makes it possible to determine the activator activity of the compound that can be used in the invention.
(§2) In this study, a constant which represents the affinity of the molecule for the receptor is determined. Since this value can fluctuate according to the basal activity and the expression of the receptor, it is designated apparent Kd (KdApp).
(§3) The test product is used at 10 concentrations and the reference antagonist at 7 concentrations. In each well (of a 96-well plate), the cells are in contact with one concentration of the test product and one concentration of the reference antagonist.
(§4) Measurements are also carried out for the total agonist control, otherwise known as 100% control (4-[2-(5,5,8,8-tetramethyl-5,6,7,8-tetrahydronaphthalen-2-yl)propenyl]benzoic acid), and the inverse agonist control, otherwise known as 0% control (4-{(E)-3-[4-(4-tert-butylphenyl)-5,5,8,8-tetramethyl-5,6,7,8-tetrahydronaphthalen-2-yl)]-3-oxopropenyl}benzoic acid).
(§5) In the case of an agonist, the AC50 is calculated by plotting the curve of the product at the concentration of the reference ligand giving 80% activation. The percentage activation which corresponds to the maximum level of activity obtained is also measured.
(§6) The HeLa cell lines used are stable transfectants containing the plasmids ERE-βGlob-Luc-SV-Neo (reporter gene) and RAR (α, β, γ) ER-DBO-puro. These cells are seeded into 96-well plates at a rate of 10 000 cells per well in 100 μl of DMEM medium without phenol red and supplemented with 10% defatted calf serum. The plates are then incubated at 37° C., 7% CO2 for 4 hours.
(§7) The various dilutions of the test product, of the reference ligand
(§8) (4-(5,5-dimethyl-8-p-tolyl-5,6-dihydronaphthalen-2-ylethynyl)benzoic acid), of the 100% control (100 nM 4-[2-(5,5,8,8-tetramethyl-5,6,7,8-tetrahydronaphthalen-2-yl)propenyl]benzoic acid) and of the 0% control (500 nM 4-{(E)-3-[4-(4-tert-butylphenyl)-5,5,8,8-tetramethyl-5,6,7,8-tetrahydronaphthalen-2-yl)]-3-oxopropenyl}benzoic acid) are added at a rate of 5 μl per well. The plates are then incubated for 18 hours at 37° C., 7% CO2.
(§9) The culture medium is removed by turning the plates over, and 100 μl of a 1:1 PBS (phosphate buffered solution)/luciferin mixture are added to each well. After 5 minutes, the plates are read using the luminescence reader.

RAR alpha = molecular target: T2, RAR alpha (Homo sapiens, UniProt P10276); assay: Transactivation test (luciferase reporter, HeLa stable transfectants), RAR alpha; conditions: apparent Kd from Schild regression, cross curves against reference antagonist, HeLa cells; read-out: RAR alpha Kdapp
T2 sequence (P10276 183-417 limits assumed): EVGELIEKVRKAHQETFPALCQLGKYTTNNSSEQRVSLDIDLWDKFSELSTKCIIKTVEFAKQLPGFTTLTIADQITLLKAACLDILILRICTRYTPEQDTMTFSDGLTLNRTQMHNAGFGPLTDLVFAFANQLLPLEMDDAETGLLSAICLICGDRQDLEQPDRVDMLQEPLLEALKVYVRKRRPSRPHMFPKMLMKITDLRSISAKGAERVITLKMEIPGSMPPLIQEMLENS
Protocol: as §1, §2, §3, §4, §5, §6, §7, §8, §9

RAR gamma = molecular target: T3, RAR gamma (Homo sapiens, UniProt P13631); assay: Transactivation test (luciferase reporter, HeLa stable transfectants), RAR gamma; conditions: apparent Kd from Schild regression, cross curves against reference antagonist, HeLa cells; read-out: RAR gamma Kdapp
T3 construct: RAR gamma Kdapp
T3 sequence (P13631 185-419 limits assumed): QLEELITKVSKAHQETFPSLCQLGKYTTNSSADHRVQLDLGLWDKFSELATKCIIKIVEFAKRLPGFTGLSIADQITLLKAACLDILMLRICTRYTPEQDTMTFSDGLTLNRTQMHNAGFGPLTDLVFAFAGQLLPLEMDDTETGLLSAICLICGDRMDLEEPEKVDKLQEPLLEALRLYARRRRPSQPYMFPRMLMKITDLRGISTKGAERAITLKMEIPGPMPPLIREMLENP
Protocol: as §1, §2, §3, §4
In the case of an agonist, the AC50 is calculated by plotting the curve of the product at the concentration of the reference ligand giving 80% activation. The percentage activation which corresponds to the maximum level of activity obtained is also measured. […]
as §9

Row | Kd (RAR beta) [nM] | Kd (RAR alpha) [nM] | Kd (RAR gamma) [nM] | SMILES
1 | 1 | 2 |  | CC1(C)CCC(C)(C)c2cc(-c3cc(-c4ccc(C(=O)O)cc4)ccc3-c3ccccc3)ccc21 [Example 14, 2′-(5,5,8,8-Tetramethyl-5,6,7,8-tetrahydronaphthalen-2-yl)-[1,1′:4′,1″]-tert-phenyl-4″-carboxylic acid]
2 | 1 | 2 | 0.25 | Cc1cc(-c2ccc(-c3ccccc3)c(-c3ccc4c(c3)C(C)(C)CCC4(C)C)c2)ccc1C(=O)O [Example 41, 3″-Methyl-2′-(5,5,8,8-tetramethyl-5,6,7,8-tetrahydronaphthalen-2-yl)-[1,1′:4,1″]-tert-phenyl-4″-carboxylic acid]
3 | 4 | 8 |  | CC1(C)CCC(C)(C)c2cc(-c3cc(-c4ccc(C(=O)O)cc4O)ccc3-c3ccccc3)ccc21 [Example 42, 2″-Hydroxy-2′-(5,5,8,8-tetramethyl-5,6,7,8-tetrahydronaphthalen-2-yl)-[1,1′:4,1″]-tert-phenyl-4″-carboxylic acid]
4 | 2 | 4 | 0.5 | COc1cc(C(=O)O)ccc1-c1ccc(-c2ccccc2)c(-c2ccc3c(c2)C(C)(C)CCC3(C)C)c1 [Example 44, 2″-Methoxy-2′-(5,5,8,8-tetramethyl-5,6,7,8-tetrahydronaphthalen-2-yl)-[1,1′:4,1″]-tert-phenyl-4″-carboxylic acid]
5 | 1 | 2 | 0.25 | CC1(C)CCC(C)(C)c2cc(-c3cc(-c4ccc(C(=O)O)c(O)c4)ccc3-c3ccccc3)ccc21 [Example 46, 3″-Hydroxy-2′-(5,5,8,8-tetramethyl-5,6,7,8-tetrahydronaphthalen-2-yl)-[1,1′:4,1″]-tert-phenyl-4″-carboxylic acid]
6 | 1 | 4 |  | CC1(C)CCC(C)(C)c2cc(-c3cc(-c4ccc(C(=O)O)cn4)ccc3-c3ccccc3)ccc21 [Example 47, 6-[2-(5,5,8,8-Tetramethyl-5,6,7,8-tetrahydronaphthalen-2-yl)biphenyl-4-yl]nicotinic acid]
